Patent US11453669B2, “Polycyclic pyridone derivative” (Shionogi & Co., Ltd., priority 2018, dated 2022)
Like-named read-outs stand apart in the source and are kept apart here.

Columns and labels:
[1] = target: T1, Voltage gated sodium channel (Nav1.5 channel) encoded by SCN5A gene (Homo sapiens, UniProt Q14524); experiment: Nav test (QPatch whole cell patch clamp); format: cell-based; details: HEK cells expressing Nav1.5, applied 5 minutes or more, room temperature
T1 construct: expressed in transfected cells; host or cells: HEK cells
T1 sequence (Q14524 whole entry): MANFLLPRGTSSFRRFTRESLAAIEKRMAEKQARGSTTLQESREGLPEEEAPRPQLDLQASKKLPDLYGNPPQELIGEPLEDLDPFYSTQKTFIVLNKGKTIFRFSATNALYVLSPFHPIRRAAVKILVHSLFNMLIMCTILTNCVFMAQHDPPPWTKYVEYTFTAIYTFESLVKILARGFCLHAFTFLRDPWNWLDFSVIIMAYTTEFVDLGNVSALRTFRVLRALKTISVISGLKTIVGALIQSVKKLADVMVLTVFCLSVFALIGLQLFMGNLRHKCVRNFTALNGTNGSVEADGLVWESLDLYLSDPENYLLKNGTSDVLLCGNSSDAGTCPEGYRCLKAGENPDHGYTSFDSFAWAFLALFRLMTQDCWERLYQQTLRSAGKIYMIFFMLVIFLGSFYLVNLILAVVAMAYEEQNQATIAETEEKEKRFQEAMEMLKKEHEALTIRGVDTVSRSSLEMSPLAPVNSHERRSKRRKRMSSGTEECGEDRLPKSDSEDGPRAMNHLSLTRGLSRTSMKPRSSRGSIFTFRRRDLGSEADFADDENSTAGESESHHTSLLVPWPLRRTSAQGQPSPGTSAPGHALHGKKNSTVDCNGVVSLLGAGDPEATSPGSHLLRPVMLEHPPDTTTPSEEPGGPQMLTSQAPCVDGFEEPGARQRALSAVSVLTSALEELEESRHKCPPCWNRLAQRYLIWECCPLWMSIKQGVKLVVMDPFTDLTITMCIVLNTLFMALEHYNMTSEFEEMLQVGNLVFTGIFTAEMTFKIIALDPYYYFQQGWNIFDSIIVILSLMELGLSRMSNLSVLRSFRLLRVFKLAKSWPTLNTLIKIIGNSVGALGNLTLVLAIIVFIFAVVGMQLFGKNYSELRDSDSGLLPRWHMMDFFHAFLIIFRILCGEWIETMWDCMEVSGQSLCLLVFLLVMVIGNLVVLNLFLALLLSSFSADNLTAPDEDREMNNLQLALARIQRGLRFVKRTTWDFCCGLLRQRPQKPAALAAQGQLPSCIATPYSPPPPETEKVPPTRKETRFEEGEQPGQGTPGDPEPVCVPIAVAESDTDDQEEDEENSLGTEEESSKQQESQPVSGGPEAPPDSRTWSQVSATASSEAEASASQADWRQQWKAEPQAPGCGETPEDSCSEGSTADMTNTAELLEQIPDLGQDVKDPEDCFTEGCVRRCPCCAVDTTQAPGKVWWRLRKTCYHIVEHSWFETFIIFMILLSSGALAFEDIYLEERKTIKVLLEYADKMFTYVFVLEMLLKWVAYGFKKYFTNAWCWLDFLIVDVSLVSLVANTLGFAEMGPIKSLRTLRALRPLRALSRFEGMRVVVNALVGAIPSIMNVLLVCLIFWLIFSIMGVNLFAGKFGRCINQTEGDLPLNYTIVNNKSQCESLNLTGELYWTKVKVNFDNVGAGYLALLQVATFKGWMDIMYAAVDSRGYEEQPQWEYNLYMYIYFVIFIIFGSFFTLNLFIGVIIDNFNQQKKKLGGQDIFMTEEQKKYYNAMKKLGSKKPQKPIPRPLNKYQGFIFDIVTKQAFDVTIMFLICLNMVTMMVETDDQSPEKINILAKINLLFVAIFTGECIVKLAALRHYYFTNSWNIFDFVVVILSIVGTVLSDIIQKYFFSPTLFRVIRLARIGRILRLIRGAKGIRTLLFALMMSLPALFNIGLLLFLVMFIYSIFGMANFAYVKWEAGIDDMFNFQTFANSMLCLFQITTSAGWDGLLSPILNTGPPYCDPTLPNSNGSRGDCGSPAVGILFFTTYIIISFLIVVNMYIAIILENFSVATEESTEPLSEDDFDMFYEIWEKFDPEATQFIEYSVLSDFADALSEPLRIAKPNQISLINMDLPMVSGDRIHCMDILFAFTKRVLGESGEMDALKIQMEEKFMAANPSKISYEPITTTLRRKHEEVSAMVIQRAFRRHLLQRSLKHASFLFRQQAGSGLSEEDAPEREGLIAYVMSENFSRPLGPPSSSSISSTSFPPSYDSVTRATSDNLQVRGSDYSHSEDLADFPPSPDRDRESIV
Protocol: A cell was retained at a membrane potential of −100 mV by whole cell patch clamp method using a fully automated patch clamp system (QPatch; Sophion Bioscience A/S), and INa induced by depolarization pulse stimulation at −10 mV for 20 ms was recorded. […] The extracellular solution in which the medium and the compound of the present invention had been dissolved at each objective concentration was applied to the cell for 5 minutes or more under conditions of room temperature.

HIV [2] = experiment: Anti-HIV activity (MT-4 cells, MTT); format: cell-based; details: read-out: EC50_nM (50% HIV inhibitory concentration)
Procedure, shortened: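 MT-4 cells (2.5×10^5 cells/mL) infected with HIV in the presence of serially diluted compound, cultured 4 days in CO2 incubator. Viability read by MTT (1 h), cell lysis, then absorbance at 560 and 690 nm.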

[3] = tested on: HIV mutant strain 4 (T97A/E138T/G140S/Q148H); experiment: Resistance evaluation test, HeLa-CD4 reporter assay, mutant strain 4; format: cell-based; details: FC=EC50 of the mutant strain/EC50 of the wild strain, HeLa-CD4 cells
Protocol: (§1) Serial dilutions of a test sample were prepared in a 96-well microplate (50 μL/well). 2.5×10^5 cells/mL of a HeLa-CD4 cell suspension was dispensed at 100 μL/well to the plate containing the test sample. Then, an HIV virus solution (wild strain and mutant strain) was dispensed at 50 μL/well. The plate was mixed with a plate mixer and cultured for 3 days in a CO2 incubator. The culture supernatant in each well was removed by suction. A cell lysis buffer in a reporter assay kit was dispensed at 100 μL/well, and the plate was frozen in a freezer (−80° C.). The plate frozen in a freezer was thawed at room temperature, then mixed with a plate mixer, and centrifuged at 1,200 rpm for 5 minutes. The supernatant of each well was dispensed at 20 μL/well to a 96-well microplate (BLACK). A chemiluminescent in the reporter assay kit reagent was dispensed at 100 μL/well and reacted at room temperature for approximately 1 hour. Then, luminescence intensity was measured using MicroBeta TRILUX. […] FC=EC50 of the mutant strain/EC50 of the wild strain (Results) The FC for mutant strain 1 (E138K/G140S/Q148H/N155H) and the FC for mutant strain 2 (E92Q/E138T/G140S/Q148H) are shown in the table.

[4] = tested on: HIV mutant strain 1 (E138K/G140S/Q148H/N155H); format: cell-based; details: FC=EC50 of the mutant strain/EC50 of the wild strain, HeLa-CD4 cells
[5] = tested on: HIV mutant strain 2 (E92Q/E138T/G140S/Q148H); format: cell-based; details: FC=EC50 of the mutant strain/EC50 of the wild strain, HeLa-CD4 cells
[6] = tested on: HIV mutant strain 3 (E92Q/E138K/G140S/Q148H); experiment: Resistance evaluation test, HeLa-CD4 reporter assay, mutant strain 3; format: cell-based; details: FC=EC50 of the mutant strain/EC50 of the wild strain, HeLa-CD4 cells
Protocol: as §1

HIV [7] = experiment: Anti-HIV activity evaluation test in the presence of human serum protein (MT-4 cells); format: cell-based; details: PS=4×(EC50 with 25% human serum protein/EC50 without), 100% extrapolated value
Protocol: Serial dilutions of a test sample were prepared in a 96-well microplate (50 μL/well). A human serum protein solution (human serum protein concentration: 50%) was dispensed into a 96-well microplate containing a test sample in an amount of 100 μL/well, and left standing at room temperature for 1 hour. 100 μL/well of the culture solution was dispensed to a plate without serum. 3.0×10^5 cells/well of MT-4 cells and 3 μL/well of HIV virus solution were mixed for the required number of wells and the mixture was reacted at 37° C. for 1 hour. After the reaction, the cell suspension was centrifuged and the supernatant discarded. The infected cells were dispersed in a culture solution for the required number of wells at 50 μL/well, and 50 μL/well was dispensed to a 96-well microplate containing the test sample and human serum protein (human serum protein final concentration: 25%). The plate was mixed with a plate mixer and cultured for 4 days in a CO2 incubator. An MTT (3-(4,5-dimethylthiazol-2-yl)-2,5-diphenyltetrazolium bromide) solution was dispensed at 30 μL/well. The plate was reacted for 1 hour in a CO2 incubator. 150 μL of the supernatant was removed from each well so as not to take up the cells. […] The absorbance of the mixed plate was measured at two wavelengths of 560 nm and 690 nm using a microplate reader. […]

[8] = format: in vitro ADME; details: human, 30 min, 0.5 μmol/L, pH 7.4
HIV [9] = experiment: Anti-HIV activity evaluation test using PBMC of a healthy subject; format: cell-based; details: Human immunodeficiency virus 1, 96 h, read-out: 90% HIV inhibitory concentration (EC90); PHA-stimulated PBMC, cultured 4 days, reverse transcriptase activity
Protocol: Serial dilutions of a test sample were prepared in a 96-well microplate (50 μL/well). PBMC stimulated with 1.0×10^5 cells/well of Phytohemagglutinin (PHA) and an HIV virus solution were mixed for the required number of wells, and the mixture was reacted at 37° C. for 1 hour. After the reaction, the cell suspension was centrifuged and the supernatant discarded. The infected cells were dispersed in a culture solution for the required number of wells at 150 μL/well, and 150 μL/well was dispensed to a 96-well microplate containing a test sample. The plate was mixed with a plate mixer and cultured for 4 days in a C02 incubator. The reverse transcriptase activity in the culture solution was measured.

Row | SMILES | ratio of maximum peak current (INa) with compound relative to medium [1] [%] | EC50 (HIV [2]; MT-4 cells, cultured 4 days, MTT) [nM] | FC for mutant strain 4 [3] | FC (fold change) for mutant strain 1 [4] | FC (fold change) for mutant strain 2 [5] | FC for mutant strain 3 [6] | potency shift (PS) in the presence of human serum protein (HIV [7]) | residual rate [8] | EC50 (HIV [2]; Human immunodeficiency virus 1, MT4, 96 h) [nM] | EC90 (HIV [9]) [nM]
1 | CCN1C(=O)c2c(O)c(=O)c(-c3nnc(Cc4ccc(F)cc4F)s3)cn2N2CCCC[C@@H]12 [Compound I-002] | 102 | 3.2 | 3.2 | 5.6 | 7.5 | 7.7 | – | – | – | –
2 | CCN1C(=O)c2c(O)c(=O)c(-c3nnc(Cc4c(F)cc(F)cc4F)s3)cn2N2CCCC[C@@H]12 [Compound I-008] | 103 | – | – | 3.8 | 6.9 | – | 116 | 97.7 | 1.6 | 1
